According to patent publication US20010046979A1, “Acidic antimicrobial compositions for treating food and food contact surfaces and methods of use thereof” (priority 2000, published 2001):

What was measured:
Assay in all cases: Antimicrobial effectiveness on inoculated broccoli, 5 minute soak
Assay type in all cases: cell-based
E-Coli = settings: 5 g/L
Protocol: (§1) Concentrated powdered compositions E and F are prepared and dissolved in deionized and hard water (10 gpg) at a level of 5 grams of composition per Liter of water to form a dilute aqueous treatment composition. The dilute aqueous treatment compositions are then tested on broccoli samples for antimicrobial effectiveness.
(§2) A Broccoli sample is innoculated with a bacterial solution containing ≧10^8 cfu bacterium per ml. Application of 100 microliters of this solution to the surface results in approximately 10^6 to 10^7 cfu per broccoli piece. Equal amounts of small spots are deposited to facilitate drying. After 30 minutes dry time the sample is placed in 50 ml of the dilute aqueous treatment composition for a 5 minute soak. After the 5 minute soak the sample is transferred to 50 ml of a neutralizer before being stomached for 2 minutes and subsequently plated to enumerate the organisms surviving the treatments. Suprisingly the acid-anionic system maintained equal or better antimicrobial activity vs. 200 ppm hypochlorite bleach over the range from 0 to 10 gpg, as shown by the data in the following Tables.

Staph aureus = settings: 5 g/L
Protocol: as §1, §2

Listeria = settings: 0 gpg water
Protocol: as §1, §2
(§3) Composition E is further tested on Salmonella and Listeria on broccoli with similar results.

Salmonella = settings: 0 gpg water
Protocol: as §1, §2, §3

SMILES: [Na+].[O-]Cl [200 ppm NaOCl, NaOCl]
- Log Reduction (greater than water alone) in 5 minutes (E-Coli; 0 gpg water): 0.86 log
- Log Reduction in 5 minutes (E-Coli; 0 gpg water): 1.2 log
- Log Reduction (greater than water alone) in 5 minutes (E-Coli; 10 gpg water): 0.93 log
- Log Reduction in 5 minutes (E-Coli; 10 gpg water): 1.3 log
- Log Reduction (greater than water alone) in 5 minutes (Staph aureus; 0 gpg water): 1.08 log
- Log Reduction in 5 minutes (Staph aureus; 0 gpg water): 1.5 log
- Log Reduction (greater than water alone) in 5 minutes (Staph aureus; 10 gpg water): 0.89 log
- Log Reduction in 5 minutes (Staph aureus; 10 gpg water): 1.3 log
- Log Reduction (greater than water alone) in 5 minutes (Listeria): 0.77 log
- Log Reduction (greater than water alone) in 5 minutes (Salmonella): 0.67 log
